The source of these data is ChEMBL document CHEMBL1949663, “Effective and reversible DNA condensation induced by bifunctional molecules containing macrocyclic polyamines and naphthyl moieties” (Bioorg Med Chem, 2012).

Structures are written as SMILES. Active and inactive are the calls of the source. No cut-off for these calls is given here.

In series [1] the test system is Nucleic Acid. Description: Induction of Escherichia coli pUC18 DNA condensation at 120 uM after 5 mins by agarose gel electrophoresis. In kind it is nucleic-acid assay.
Series [2] relates to Nucleic Acid. Put plainly: Induction of Escherichia coli pUC18 DNA condensation assessed as hydrodynamic diameter at 60 uM after 5 mins by dynamic light scattering analysis. In kind it is nucleic-acid assay.
Series [3] relates to Nucleic Acid. Put plainly: Induction of Escherichia coli pUC18 DNA condensation assessed as hydrodynamic diameter at 120 uM after 5 mins by dynamic light scattering analysis. In kind it is nucleic-acid assay.
Series [4] deals with Nucleic Acid. Description: Induction of Escherichia coli pUC18 DNA condensation assessed as diameter of DNA nano particles at 60 uM after 5 mins by atomic force microscopy. In kind it is nucleic-acid assay.
Series [5] deals with Nucleic Acid. Put plainly: Induction of Escherichia coli pUC18 DNA condensation assessed as diameter of DNA nano particles at 120 uM after 5 mins by atomic force microscopy. In kind it is nucleic-acid assay.
Series [6] concerns Nucleic Acid. Description: Binding affinity to calf thymus DNA assessed as fluorescence quenching after 2 mins by ethidium bromide displacement assay. In kind it is nucleic-acid assay. The conditions noted are these: Bos taurus.
Series [7] concerns Nucleic Acid. Put plainly: Induction of Escherichia coli pUC18 DNA condensation at 80 uM after 5 mins by agarose gel electrophoresis in presence of 10 to 400 mM NaCl. In kind it is nucleic-acid assay.
The subject of series [8] is Nucleic Acid. Put plainly: Intercalation at calf thymus DNA assessed as increase in viscosity by viscosity titration assay. In kind it is nucleic-acid assay. Particulars: Bos taurus.
The test system of series [9] is Nucleic Acid. Put plainly: Reversible condensation of Escherichia coli pUC18 DNA assessed as release of condensed DNA at 120 uM incubated for 5 mins followed by addition of […] NaCl by agarose gel electrophoresis. In kind it is nucleic-acid assay.
Series [10] can be described thus: Cytotoxicity against human HepG2 cells assessed as cell viability at 120 uM after 24 hrs by MTT assay. Particulars: read-out: Activity. In kind it is cell-based.
Series [11] can be described thus: Cytotoxicity against human T98G cells assessed as cell viability at 120 uM after 24 hrs by MTT assay. In kind it is cell-based. The conditions noted are these: read-out: Activity.
Series [12] relates to Nucleic Acid. Description: Induction of Escherichia coli pUC18 DNA condensation at 300 uM after 5 mins by agarose gel electrophoresis. In kind it is nucleic-acid assay.
The subject of series [13] is Nucleic Acid. Put plainly: Induction of Escherichia coli pUC18 DNA condensation at above 120 uM after 5 mins by agarose gel electrophoresis. In kind it is nucleic-acid assay.
Another series concerns T98G. Description: Cytotoxicity against human T98G cells at 30 to 120 uM after 24 hrs by MTT assay. In kind it is cell-based. On the technique in general: Tetrazolium assays rely on reduction of a dye to a coloured formazan, in cell work by metabolically active cells.
Another series has as its system HepG2. Put plainly: Cytotoxicity against human HepG2 cells at 30 to 120 uM after 24 hrs by MTT assay. The conditions noted are these: hepg2, 24 h. In kind it is cell-based.

Consider `c1ccc2c(CC(Cn3cc(CN4CCCNCCCNCCC4)nn3)Cn3cc(CN4CCCNCCCNCCC4)nn3)cccc2c1`, for which the result with Nucleic Acid [1] and in the series with Nucleic Acid [9] was Active. In addition, the Activity came to 181 nm in the series with Nucleic Acid [2], 222 nm in the series with Nucleic Acid [3], 49 nm with Nucleic Acid [4] and 56 nm in the series with Nucleic Acid [5]. In the series with Nucleic Acid [6], the Kb was found to be 0.98 ×10⁵ /M. In addition, the result in the series with Nucleic Acid [7] and with Nucleic Acid [8] was inactive. In addition, the viability at 24 h, 120 µM in [10] was 64%; in series [11], 88%.

In the case of `C1CNCCCN(CCCN2CCCNCCCNCCC2)CCCNC1`, the result in the series with Nucleic Acid [12] was inactive.

Regarding `c1ccc2c(CCCN3CCCNCCCNCCC3)cccc2c1`, in the series with Nucleic Acid [13], the result was Active.

As for `c1ccc2c(CC(CN3CCCNCCCNCCC3)CN3CCCNCCCNCCC3)cccc2c1`, the outcome in the series on Nucleic Acid [1] and in the series on Nucleic Acid [9] was Active. Besides, the Activity was 105 nm in the series with Nucleic Acid [2]; 146 nm in the series on Nucleic Acid [3]; 47 nm in the series with Nucleic Acid [4]; 55 nm in the series on Nucleic Acid [5]; “Toxic” in the series with T98G; “Toxic” in the series with HepG2. In the series with Nucleic Acid [6], the Kb amounted to 1.2 ×10⁵ /M. The result with Nucleic Acid [7] and in the series with Nucleic Acid [8] was inactive.

For `c1ccc2c(CN3CCCNCCCNCCC3)cccc2c1`, in the series on Nucleic Acid [12], the outcome was inactive.

As for `c1c(CN2CCCNCCCNCCC2)nnn1CCCn1cc(CN2CCCNCCCNCCC2)nn1`, the outcome in the series with Nucleic Acid [12] was inactive.
